Measured values: patent US20250289785A1, “INDOLE DERIVATIVE, METHOD FOR PREPARING SAME, AND USE THEREOF” (MITOIMMUNE THERAPEUTICS INC., priority 2021, published 2025)

The compounds below were run on H9C2 cells (assay: Cell protection effect against t-BHP in heart cells (LDH release)). Conditions: H9C2, t-BHP 40 μM, 2 hours.
Type: cell-based
Method: In order to identify the protective effect with regard to heart cells, H9C2 cells were divided into 96-well plates by 1.5×10^4, and cultured for 24 hours. The respective wells were treated with compounds of the examples 3× serial diluted to final concentrations of […], then cultured for 15 to 20 minutes. After treating with t-BHP with a final concentration of 40 μM, culturing was performed for 2 hours. In order to identify the protective effect of each compound, a Cytotoxicity LDH assay kit [Dojindo; CK12] was used to measure the degree of extracellular secretion of LDH. To describe briefly, at the time point 2-hour treatment of the cells with t-BHIP was completed, 100 μL each of the supernatant in which the cells were placed was collected and moved to a new 96-well plate. 100 μL/well of the assay buffer included in the kit (same amount as the sample) was added, followed by wrapping with foil and reacting for 30 minutes at room temperature. Observing the change in color of the sample, 50 μL/well of stop solution was added, then an iD3 spectrometer was used to measure absorbance at 490 nm and calculate the EC50 values. The EC50 of the compounds of the examples is preferably no more than 1.0 μM, and more preferably no more than 0.3 μM.

SMILES | EC50
COCc1cc(NC2CCC(F)(F)CC2)c2[nH]c(-c3ccccc3)cc2c1 [Example 7, N-(4,4-difluorocyclohexyl)-5-(methoxymethyl)-2-phenyl-1H-indol-7-amine] | ≤ 300 nM
COCc1cc(NCc2ccccc2)c2[nH]c(-c3ccccc3)cc2c1 [Example 8, N-benzyl-5-(methoxymethyl)-2-phenyl-1H-indol-7-amine] | ≤ 300 nM
CC(C)(C)OCc1cc(NC2CCOCC2)c2[nH]c(-c3ccccc3)cc2c1 [Example 15, 5-(tert-butoxymethyl)-2-phenyl-N-tetrahydropyran-4-yl-1H-indol-7-amine] | ≤ 300 nM
CC(C)(C)OCc1cc(NC2CCCC2)c2[nH]c(-c3ccccc3)cc2c1 [Example 16, 5-(tert-butoxymethyl)-N-cyclopentyl-2-phenyl-1H-indol-7-amine] | ≤ 300 nM
CC(C)(C)OCc1cc(N(C2CCCC2)C2CCCC2)c2[nH]c(-c3ccccc3)cc2c1 [Example 17, 5-(tert-butoxymethyl)-N,N-dicyclopentyl-2-phenyl-1H-indol-7-amine] | ≤ 300 nM
CCOCc1cc(NC2CCOCC2)c2[nH]c(-c3ccccc3)cc2c1 [Example 20, 5-(ethoxymethyl)-2-phenyl-N-(tetrahydro-2H-pyran-4-yl)-1H-indol-7-amine] | ≤ 300 nM
CC(C)OCc1cc(NC2CCCC2)c2[nH]c(-c3ccccc3)cc2c1 [Example 21, N-cyclopentyl-5-(isopropoxymethyl)-2-phenyl-1H-indol-7-amine] | ≤ 300 nM
CCOCc1cc(NC2CCCC2)c2[nH]c(-c3ccccc3)c(C#N)c2c1 [Example 23, 7-(cyclopentylamino)-5-(ethoxymethyl)-2-phenyl-1H-indole-3-carbonitrile] | ≤ 300 nM
CCOCc1cc(N(C2CCOCC2)C2CCOCC2)c2[nH]c(-c3ccccc3)c(/C=N/OC)c2c1 [Example 26, (E)-7-(bis(tetrahydro-2H-pyran-4-yl)amino)-5-(ethoxymethyl)-2-phenyl-1H-indole-3-carbaldehyde O-methyl Oxime] | > 1000 nM
CCOCc1cc(NC2CCCC2)c2c(c1)c(COC)c(-c1ccccc1)n2C [Example 28, N-cyclopentyl-5-(ethoxymethyl)-3-(methoxymethyl)-1-methyl-2-phenyl-1H-indol-7-amine] | 300 to 1000 nM
CCOCc1cc(NC2CCOCC2)c2[nH]c(-c3ccccc3)c(/C=C/C(=O)OC)c2c1 [Example 31, Methyl (E)-3-(5-(ethoxymethyl)-2-phenyl-7-((tetrahydro-2H-pyran-4-yl)amino)-1H-indole-3-yl)acrylate] | ≤ 300 nM
CCOCc1cc(NC2CCOCC2)c2[nH]c(-c3ccccc3)c(/C=C/C(=O)c3ccccc3)c2c1 [Example 35, (E)-3-(5-(ethoxymethyl)-2-phenyl-7-((tetrahydro-2H-pyran-4-yl)amino)-1H-indol-3-yl)-1-phenylpropan-2-en-1-one] | ≤ 300 nM
CCOCc1cc(NC2CCCC2)c2[nH]c(-c3ccccc3)c(CCC(=O)OC)c2c1 [Example 38, Methyl 3-(7-(cyclopentylamino)-5-(ethoxymethyl)-2-phenyl-1H-indol-3-yl)propanoate] | ≤ 300 nM
CCOCc1cc(NC2CCCC2)c2[nH]c(-c3ccccc3)c(CCC(=O)O)c2c1 [Example 40, 3-(7-(cyclopentylamino)-5-(ethoxymethyl)-2-phenyl-1H-indol-3-yl)propanoic acid] | > 1000 nM
CCOCc1cc(NC2CCCC2)c2[nH]c(-c3ccccc3)c(-c3nccn3C(=O)OCC)c2c1 [Example 43, Ethyl 2-(7-(cyclopentylamino)-5-(ethoxymethyl)-2-phenyl-1H-indol-3-yl)-1H-imidazole-1-carboxylate] | 300 to 1000 nM
CCOCc1cc(NC2CCOCC2)c2[nH]c(-c3ccccc3)c(-c3nccn3C(=O)OCC)c2c1 [Example 44, ethyl 2-(5-(ethoxymethyl)-2-phenyl-7-((tetrahydro-2H-pyran-4-yl)amino)-1H-indol-3-yl)-1H-imidazole-1-carboxylate] | > 1000 nM

Further lines, results first:

EC50 | SMILES
≤ 300 nM | COCc1cc(NCC2CCOCC2)c2[nH]c(-c3ccccc3)cc2c1 [Example 3, 5-(methoxymethyl)-2-phenyl-N-(tetrahydropyran-4-ylmethyl)-1H-indol-7-amine]
≤ 300 nM | COCc1cc(NC2CCS(=O)(=O)CC2)c2[nH]c(-c3ccccc3)cc2c1 [Example 4, N-(1,1-dioxothian-4-yl)-5-(methoxymethyl)-2-phenyl-1H-indol-7-amine]
≤ 300 nM | COCc1cc(NC2CCN(S(C)(=O)=O)CC2)c2[nH]c(-c3ccccc3)cc2c1 [Example 5, 5-(methoxymethyl)-N-(1-methylsulfonyl-4-piperidyl)-2-phenyl-1H-indol-7-amine]
≤ 300 nM | COCc1cc(NC2CCN(C(C)=O)CC2)c2[nH]c(-c3ccccc3)cc2c1 [Example 6, 1-[4-[[5-(methoxymethyl)-2-phenyl-1H-indol-7-yl]amino]-1-piperidyl]ethanone]
≤ 300 nM | COCc1cc(NC2CCN(C(=O)OC(C)(C)C)CC2)c2[nH]c(-c3ccccc3)cc2c1 [Example 9, tert-butyl 4-[[5-(methoxymethyl)-2-phenyl-1H-indol-7-yl]amino]-piperidine-1-carboxylate]
≤ 300 nM | COCc1cc(NC(C)C)c2[nH]c(-c3ccccc3)cc2c1 [Example 10, N-isopropyl-5-(methoxymethyl)-2-phenyl-1H-indol-7-amine]
≤ 300 nM | COCc1cc(NC2CCN(C)CC2)c2[nH]c(-c3ccccc3)cc2c1 [Example 11, 5-(methoxymethyl)-N-(1-methyl-4-piperidyl)-2-phenyl-1H-indol-7-amine]
≤ 300 nM | COCCNc1cc(COC)cc2cc(-c3ccccc3)[nH]c12 [Example 12, N-(2-methoxyethyl)-5-(methoxymethyl)-2-phenyl-1H-indol-7-amine]
≤ 300 nM | COCCCNc1cc(COC)cc2cc(-c3ccccc3)[nH]c12 [Example 13, 5-(methoxymethyl)-N-(3-methoxypropyl)-2-phenyl-1H-indol-7-amine]
≤ 300 nM | COCc1cc(NC2CCOCC2)c2[nH]cc(-c3ccccc3)c2c1 [Example 18, 5-(methoxymethyl)-3-phenyl-N-tetrahydropyran-4-yl-1H-indol-7-amine]
≤ 300 nM | CC(C)OCc1cc(NC2CCOCC2)c2[nH]c(-c3ccccc3)cc2c1 [Example 22, 5-(isopropoxymethyl)-2-phenyl-N-(tetrahydro-2H-pyran-4-yl)-1H-indol-7-amine]
300 to 1000 nM | CCOCc1cc(NC2CCOCC2)c2[nH]c(-c3ccccc3)c(C#N)c2c1 [Example 24, 5-(ethoxymethyl)-2-phenyl-7-((tetrahydro-2H-pyran-4-yl)amino)-1H-indole-3-carbonitrile]
≤ 300 nM | CCOCc1cc(NC2CCCC2)c2[nH]c(-c3ccccc3)c(/C=N/OC)c2c1 [Example 25, (E)-7-(cyclopentylamino)-5-(ethoxymethyl)-2-phenyl-1H-indole-3-carbaldehyde O-methyl oxime]
≤ 300 nM | CCOCc1cc(NC2CCOCC2)c2[nH]c(-c3ccccc3)c(/C=N/OC)c2c1 [Example 27]
≤ 300 nM | CCOCc1cc(NC2CCCC2)c2[nH]c(-c3ccccc3)c(/C=C/C(=O)OC)c2c1 [Example 30, methyl (E)-3-(7-(cyclopentylamino)-5-(ethoxymethyl)-2-phenyl-1H-indol-3-yl)acrylate]
≤ 300 nM | CCOCc1cc(NC2CCCC2)c2[nH]c(-c3ccccc3)c(C(=O)C(F)(F)F)c2c1 [Example 32, 1-(7-(cyclopentylamino)-5-(ethoxymethyl)-2-phenyl-1H-indol-3-yl)-2,2,2-trifluoroethan-1-one]
300 to 1000 nM | CCOCc1cc(NC2CCOCC2)c2[nH]c(-c3ccccc3)c(C(=O)C(F)(F)F)c2c1 [Example 33, 1-(5-(ethoxymethyl)-2-phenyl-7-((tetrahydro-2H-pyran-4-yl)amino)-1H-indol-3-yl)-2,2,2-trifluoro-1-one]
≤ 300 nM | CCOCc1cc(NC2CCCC2)c2[nH]c(-c3ccccc3)c(/C=C/C(=O)c3ccccc3)c2c1 [Example 34, (E)-3-(7-(cyclopentylamino)-5-(ethoxymethyl)-2-phenyl-1H-indol-3-yl)-1-phenylpropan-2-ene-1-one]
≤ 300 nM | CCOCc1cc(NC2CCCC2)c2[nH]c(-c3ccccc3)c(C(O)C(F)(F)F)c2c1 (stereo not drawn) [Example 36, 1-(7-(cyclopentylamino)-5-(ethoxymethyl)-2-phenyl-1H-indol-3-yl)-2,2,2-trifluoroethan-1-ol]
300 to 1000 nM | CCOCc1cc(NC2CCOCC2)c2[nH]c(-c3ccccc3)c(C(O)C(F)(F)F)c2c1 (stereo not drawn) [Example 37, 1-(5-(ethoxymethyl)-2-phenyl-7-((tetrahydro-2H-pyran-4-yl)amino)-1H-indol-3-yl)-2,2,2-trifluoro-1-ol]
≤ 300 nM | CCOCc1cc(NC2CCOCC2)c2[nH]c(-c3ccccc3)c(CCC(=O)OC)c2c1 [Example 39, Methyl 3-(5-(ethoxymethyl)-2-phenyl-7-((tetrahydro-2H-pyran-4-yl)amino)-1H-indol-3-yl)propanoate]
≤ 300 nM | COCCc1cc(NC2CCCC2)c2[nH]c(-c3ccccc3)cc2c1 [Example 42, N-cyclopentyl-5-(2-methoxyethyl)-2-phenyl-1H-indol-7-amine]
300 to 1000 nM | CCOCc1cc(NC2CCCC2)c2[nH]c(-c3ccccc3)c(-c3ncc[nH]3)c2c1 [Example 45, N-cyclopentyl-5-(ethoxymethyl)-3-(1H-imidazol-2-yl)-2-phenyl-1H-indol-7-amine]
